Reference: patent US20220401457A1, “Use of Deoxycholic Acid, Derivatives, or Salts Thereof in Managing Bacterial Infections and Compositions Related Thereto” (Emory University, priority 2019, published 2022)

Assays:
[1] = tested on: Streptococcus pneumoniae (Spn) strains; assay: Antibacterial potency of sodium deoxycholate against cultures of Spn strains; format: cell-based; conditions: concentration as low as 0.5 mg/ml; within two hours of incubation; numerous different Spn strains including vaccine strains and strains with multiple resistance to antibiotics
Method: (§1) Streptococcus pneumoniae (Spn) colonizes the upper airways of most children. From the upper airways, Spn migrates to the ear epithelium causing otitis media, a main cause of child disease in the US. Resistance in Spn strains is a serious concern. Bile salts produced in the human liver and secreted into the gut, including sodium deoxycholate. Sodium deoxycholate at a concentration of 10 mg/mL is an injectable treatment to reduce fat under the chin. The antibacterial potency of sodium deoxycholate against Spn was assessed. […] Most tested pneumococcal strains were reference strains provided by the Centers for Disease Control and Prevention (CDC). […] It is contemplated that sodium deoxycholate can be used as a prophylactic agent to eradicate Spn from the upper airways and/or as a therapeutic agent to treat pneumococcal otitis media. To eradicate Spn from the upper airways of healthy children, a strategy using the following routes can be pursued (1) the use of nasal spray to impregnate the upper airways with sodium deoxycholate, or (2) as an additive to a gel or toothpaste. For its therapeutic used in the treatment of otitis media, ototopical antibiotic preparations can be added with sodium deoxycholate to kill antibiotic resistance Spn strains.

[2] = tested on: pneumococcal colonization (Spn); assay: Experiments mimicking pneumococcal colonization of the human airways; format: cell-based, Streptococcus pneumoniae; conditions: 0.5 mg/ml; colonization otherwise at density of 1×10^7 cfu/mL pneumococci
Method: as §1

sodium deoxycholate
killing of cultures of Spn strains [1]: completely killed
time of exposure to eradicate pneumococcal colonization [2]: ≤ 10 min
